Experimental data published in patent publication US20040044037A1, “Amidino-urea serotonin receptor ligands and compositions, their pharmaceutical uses, and methods for their snythesis” (priority 2003, published 2004).
Like-named read-outs stand apart in the source and are kept apart here.

Assays:
human 5HT2a receptors = biological target: T1, human 5HT2a receptors (Homo sapiens, UniProt P28223); assay: Competition radioligand binding, 5-HT2A
T1 construct: expressed in transfected cells; host or cells: CHO K1 cells
Outline: (§1)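 Human 5-HT1a and 5-HT2a receptors were expressed in CHO K1 cell membranes. Competition binding was stopped by filtration onto PEI-soaked GF/C filters and counted by liquid scintillation. IC50 values and Hill slopes came from nonlinear regression, and Ki was calculated by Cheng–Prusoff.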

[1] = biological target: T2, human 5-HT6 (h5-HT6) receptors (Homo sapiens, UniProt P50406); assay: Competition radioligand binding, h5-HT6
T2 construct: purchased Receptor Biology, Inc. (Beltsville, Md.); host or cells: HEK-293 cells

[2] = biological target: T3, human 5-HT7B (h5-HT7b) receptors (Homo sapiens, UniProt P34969); assay: Competition radioligand binding, h5-HT7b
T3 construct: expressed in transfected cells
Outline: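 Membranes from HEK 293 cells stably expressing human 5-HT7b incubated with ~0.2 nM [3H]5-CT and varying compound 2 h at 37 °C in HEPES buffer pH 7.4 with pargyline. Nonspecific binding with 1 μM 5-HT; filtration, scintillation counting; IC50 by nonlinear regression converted to Ki via Cheng–Prusoff.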

[3] = biological target: T4, human D2S dopamine (hD2S-DA) receptors (Homo sapiens, UniProt P14416); assay: Competition radioligand binding, hD2S dopamine
T4 construct: purchased Receptor Biology, Inc. (Beltsville, Md.); host or cells: A9 L cells

human 5-HT1a receptors = biological target: T5, human 5-HT1a receptors (Homo sapiens, UniProt P08908); assay: Competition radioligand binding, h5-HT1a
T5 construct: expressed in transfected cells; host or cells: CHO K1 cells
T5 sequence (P08908 1-422): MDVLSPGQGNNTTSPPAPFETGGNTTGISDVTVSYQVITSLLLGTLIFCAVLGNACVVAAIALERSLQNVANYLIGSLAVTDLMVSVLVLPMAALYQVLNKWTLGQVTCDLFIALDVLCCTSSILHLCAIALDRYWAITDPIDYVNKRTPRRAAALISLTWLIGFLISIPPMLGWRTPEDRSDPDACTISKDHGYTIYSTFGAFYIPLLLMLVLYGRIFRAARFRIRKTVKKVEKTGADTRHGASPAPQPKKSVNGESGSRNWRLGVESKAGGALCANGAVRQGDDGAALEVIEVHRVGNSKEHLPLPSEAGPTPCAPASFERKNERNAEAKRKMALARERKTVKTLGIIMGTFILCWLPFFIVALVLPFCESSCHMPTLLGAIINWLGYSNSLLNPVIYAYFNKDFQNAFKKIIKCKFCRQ
Outline: as §1

[4] = [3H]Ketanserin, membranes of CHO K1 cells, read-out: Ki 5-HT2A
[5] = [3H]LSD, membranes of HEK-293 cells, read-out: Ki 5-HT6
[6] = [3H]5-CT, membranes of HEK 293 cells, read-out: Ki 5-HT7
[7] = [3H]Spiperone, membranes of A9 L cells, read-out: Ki D2
[8] = [3H]5-CT, membranes of CHO K1 cells, read-out: Ki 5-HT1A

T4 sequence (P14416 1-414 isoform P14416-2): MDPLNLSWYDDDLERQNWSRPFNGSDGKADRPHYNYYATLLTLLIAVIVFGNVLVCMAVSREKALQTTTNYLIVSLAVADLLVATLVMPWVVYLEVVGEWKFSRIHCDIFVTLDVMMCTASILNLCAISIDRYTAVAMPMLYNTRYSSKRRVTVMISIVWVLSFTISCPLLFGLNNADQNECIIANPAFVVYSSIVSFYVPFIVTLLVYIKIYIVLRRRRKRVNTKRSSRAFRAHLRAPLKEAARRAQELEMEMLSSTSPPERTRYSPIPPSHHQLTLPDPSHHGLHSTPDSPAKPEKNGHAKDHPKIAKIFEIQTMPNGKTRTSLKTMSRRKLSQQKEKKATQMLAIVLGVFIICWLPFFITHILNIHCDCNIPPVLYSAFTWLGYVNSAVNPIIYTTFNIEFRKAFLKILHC
T2 sequence (P50406 whole entry): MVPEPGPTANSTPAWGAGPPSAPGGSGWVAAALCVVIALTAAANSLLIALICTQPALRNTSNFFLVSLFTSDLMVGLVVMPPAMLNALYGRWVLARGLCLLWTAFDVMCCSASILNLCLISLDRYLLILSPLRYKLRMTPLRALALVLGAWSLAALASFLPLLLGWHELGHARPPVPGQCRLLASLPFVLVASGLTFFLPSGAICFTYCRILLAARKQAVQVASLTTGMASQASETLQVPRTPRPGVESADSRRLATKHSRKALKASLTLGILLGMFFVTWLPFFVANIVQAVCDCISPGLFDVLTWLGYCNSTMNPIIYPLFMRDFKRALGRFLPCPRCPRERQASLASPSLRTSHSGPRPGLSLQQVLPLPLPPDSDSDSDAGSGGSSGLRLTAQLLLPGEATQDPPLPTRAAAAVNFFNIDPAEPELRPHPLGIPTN
T1 sequence (P28223 whole entry): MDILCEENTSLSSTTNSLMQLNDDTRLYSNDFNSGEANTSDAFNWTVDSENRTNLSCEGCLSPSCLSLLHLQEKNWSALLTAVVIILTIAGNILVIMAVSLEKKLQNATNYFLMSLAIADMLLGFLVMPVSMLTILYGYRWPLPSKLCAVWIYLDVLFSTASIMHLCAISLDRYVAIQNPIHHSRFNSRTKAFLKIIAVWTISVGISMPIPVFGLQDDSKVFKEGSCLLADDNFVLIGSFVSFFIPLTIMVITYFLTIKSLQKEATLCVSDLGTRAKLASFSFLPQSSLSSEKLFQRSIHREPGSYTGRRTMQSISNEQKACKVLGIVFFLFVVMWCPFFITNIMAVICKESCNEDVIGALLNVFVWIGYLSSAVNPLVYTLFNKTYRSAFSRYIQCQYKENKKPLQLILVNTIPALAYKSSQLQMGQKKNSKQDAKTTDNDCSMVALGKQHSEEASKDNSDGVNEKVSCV
T3 sequence (P34969 1-432 limits assumed): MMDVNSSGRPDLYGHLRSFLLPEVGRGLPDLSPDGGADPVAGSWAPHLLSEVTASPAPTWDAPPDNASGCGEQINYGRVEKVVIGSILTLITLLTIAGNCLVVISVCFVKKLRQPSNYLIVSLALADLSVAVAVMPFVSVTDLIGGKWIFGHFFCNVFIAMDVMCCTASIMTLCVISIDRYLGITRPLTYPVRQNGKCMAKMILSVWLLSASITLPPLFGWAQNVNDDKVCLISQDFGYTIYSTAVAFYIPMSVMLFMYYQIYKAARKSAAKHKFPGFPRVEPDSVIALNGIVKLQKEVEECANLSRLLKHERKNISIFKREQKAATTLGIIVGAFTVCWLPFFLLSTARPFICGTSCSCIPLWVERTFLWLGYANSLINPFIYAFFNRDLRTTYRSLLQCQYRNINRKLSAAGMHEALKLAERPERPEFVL

Row | Compound | Ki (human 5HT2a receptors; [4]) | Ki [1, 5] | Ki [2, 6] | Ki [3, 7] | Ki (human 5-HT1a receptors; [8]) | Ki (human 5HT2a receptors) | Ki [1] | Ki [2] | Ki [3] | Ki (human 5-HT1a receptors)
1 | CC(=O)Nc1ccc(NC(=O)NC(=N)NCc2cccc3ccccc23)cc1 [Example 1, N-(4-{[({Imino[(1-naphthylmethyl)amino]methyl}amino)carbonyl]amino}phenyl)acetamide] | 1 nM | 2500 nM | 13 nM | 1770 nM | 220 nM |  |  |  |  | 
2 | N=C(NCc1cccc2ccccc12)NC(=O)NC1CCCc2ccccc21 (stereo not shown) [Example 40, 1-{[({Imino[(1-naphthylmethyl)amino]methyl}amino)carbonyl]amino}-1,2,3,4-tetrahydronaphthalene] | 4.1 nM | 590 nM | 24 nM | 1700 nM | 540 nM |  |  |  |  | 
3 | N=C(NCc1ccccc1-c1ccccc1)NC(=O)N1CCC(Nc2ccccc2)CC1 [Example 79, N-[(4-Anilino-1-piperidinyl)carbonyl]-N′-([1,1′-biphenyl]-2-ylmethyl)guanidine] |  |  |  |  |  | 910 nM | 2400 nM | 99 nM | > 2500 nM | > 4000 nM
4 | CCOc1ccccc1CNC(=N)NC(=O)N1CCC(Nc2ccccc2)CC1 [Example 78, N-[(4-Anilino-1-piperidinyl)carbonyl]-N′-(2-ethoxybenzyl)guanidine] |  |  |  |  |  | 170 nM | 6870 nM | 34 nM | > 2500 nM | > 4000 nM
5 | N=C(NCc1cccc2ccccc12)NC(=O)NCC1CCN(Cc2ccc3c(c2)OCO3)CC1 [Example 66, 1-(1,3-Benzodioxol-5-ylmethyl)-4-({[({imino[(1-naphthylmethyl)amino]methyl}amino)carbonyl]amino}methyl)piperidine] | 4.2 nM | 3700 nM | 31 nM | 1580 nM | 430 nM |  |  |  |  | 
6 | CCOC(=O)N1CCN(C(=O)NC(=N)NCc2cccc3ccccc23)CC1 [Example 51, Ethyl 4-[({imino[(1-naphthylmethyl)amino]methyl}amino)carbonyl]-1-piperazine carboxylate] | 18 nM | > 10000 nM | 15 nM | > 2500 nM | > 4000 nM |  |  |  |  | 
7 | N=C(NCc1cccc2ccccc12)NC(=O)NCC1(O)CCCCC1 [Example 50, 1-({[[({[(1-Hydroxycyclohexyl)methyl]amino}carbonyl)amino](imino)methyl]amino}methyl)naphthalene] | 0.25 nM | 620 nM | 26 nM | 1070 nM | 47 nM |  |  |  |  | 
8 | N=C(NCc1cccc2ccccc12)NC(=O)NCC1CCN(Cc2ccc([N+](=O)[O-])cc2)CC1 [Example 60, 4-({[({Imino[(1-naphthylmethyl)amino]methyl}amino)carbonyl]amino}methyl)-1-(4-nitrobenzyl)piperidine] | 16 nM | 3470 nM | 51 nM | 1870 nM | 68 nM |  |  |  |  | 
9 | COc1ccc(CN2CCC(CNC(=O)NC(=N)NCc3cccc4ccccc34)CC2)cc1 [Example 71, 4-({[({Imino[(1-naphthylmethyl)amino]methyl}amino)carbonyl]amino}methyl)-1-(4-methoxybenzyl)piperidine] | 1.3 nM | 1370 nM | 19 nM | 1470 nM | 600 nM |  |  |  |  | 
10 | N=C(NCc1cccc2ccccc12)NC(=O)N1CCC2(CC1)C(=O)NCN2c1ccccc1 [Example 36, N-(1-Naphthylmethyl)-N′-[(4-oxo-1-phenyl-1,3,8-triazaspiro[4.5]dec-8yl)carbonyl]guanidine] | 33 nM | 740 nM | 11 nM | 340 nM | 580 nM |  |  |  |  | 
11 | COc1cccc(CCNC(=O)NC(=N)NCc2cccc3ccccc23)c1OC [Example 53, 1-({[({[(2,3-Dimethoxyphenethyl)amino]carbonyl}amino)(imino)methyl]amino}methyl)naphthalene] | 0.8 nM | 1870 nM | 62 nM | 290 nM | 170 nM |  |  |  |  | 
12 | N=C(NCc1cccc2ccccc12)NC(=O)NC1CCc2ccccc21 (stereo not shown) [Example 43, 1-({[{[(2,3-Dihydro-1H-inden-1-ylamino)carbonyl]amino}(imino)methyl]amino}methyl)naphthalene] | 4.8 nM | 900 nM | 22 nM | 2190 nM | 630 nM |  |  |  |  | 
13 | CC(=O)NC(=N)NCc1cccc2ccccc12 [Example 3, N-Acetyl-N′-(1-naphthylmethyl)guanidine] | 8 nM | 2720 nM | 100 nM | > 2500 nM | 1530 nM |  |  |  |  | 
14 | CC(=O)Nc1ccc(CN2CCC(CNC(=O)NC(=N)NCc3cccc4ccccc34)CC2)cc1 [Example 70, N-(4-{[4-({[({Imino[(1-naphthylmethyl)amino]methyl}amino)carbonyl]amino}methyl)-1-piperidinyl]methyl}phenyl)acetamide] | 0.55 nM | 2430 nM | 16 nM | 2450 nM | 110 nM |  |  |  |  | 
15 | COc1ccc(CN2CCC(CNC(=O)NC(=N)NCc3cccc4ccccc34)CC2)cc1C [Example 68, 4-({[({Imino[(1-naphthylmethyl)amino]methyl}amino)carbonyl]amino}methyl)-1-(4-methoxy-3-methylbenzyl)piperidine] | 10 nM | 910 nM | 18 nM | 1540 nM | 1680 nM |  |  |  |  | 
16 | Cc1cccc(CN2CCC(CNC(=O)NC(=N)NCc3cccc4ccccc34)CC2)c1 [Example 72, 4-({[({Imino[(1-naphthylmethyl)amino]methyl}amino)carbonyl]amino}methyl)-1-(3-methylbenzyl)piperidine] | 5.3 nM | 880 nM | 15 nM | 880 nM | 420 nM |  |  |  |  | 
17 | N=C(NCc1cccc2ccccc12)NC(=O)N1CCN(Cc2ccccc2)CC1 [Example 7, N-[(4-Benzyl-1-piperazinyl)carbonyl]-N′-(1-naphthylmethyl)guanidine] | 43 nM | > 10000 nM | 1.4 nM | 770 nM | 1690 nM |  |  |  |  | 
